Source: patent publication US11214803B2, “Modulators of YAP1 expression” (Ionis Pharmaceuticals, Inc., priority 2019, dated 2022)
Strand notation (5' to 3'): a small letter for the sugar, then the base; units joined by * are phosphorothioate-linked, units joined directly phosphodiester-linked; [ ] holds rarer units or linkages, { } end groups; capitals alone tell only the bases. k = constrained ethyl (cEt); [5mC] = 5-methylcytosine; d = 2'-deoxy (DNA)

System: Yap1 mRNA
Test: Antisense inhibition of human Yap1 in A-431 cells by cEt gapmers, single dose (Example 2, RTS4814)
Assay type: cell-based
Experimental: Modified oligonucleotides were designed to target a Yap1 nucleic acid and were tested for their effect on Yap1 mRNA level in vitro. The modified oligonucleotides were tested in a series of experiments that had similar culture conditions. Cultured A-431 cells at a density of 5,000 cells per well were treated using free uptake with 2,000 nM of modified oligonucleotide. After a treatment period of approximately 48 hours, RNA was isolated from the cells and Yap1 mRNA levels were measured by quantitative real-time RTPCR. Human primer probe set RTS4814 was used to measure mRNA levels. Yap1 mRNA levels were normalized to total RNA content, as measured by RIBOGREEN®. Results are presented in the tables below as percent control of the amount of Yap1 mRNA relative to untreated control cells (% UTC). The modified oligonucleotides with percent control values marked with an asterisk (*) target the amplicon region of the primer probe set. Additional assays may be used to measure the potency and efficacy of the modified oligonucleotides targeting the amplicon region.
The newly designed modified oligonucleotides in the Tables below were designed as 3-10-3 cEt gapmers. The gapmers are 16 nucleosides in length, wherein the central gap segment comprises of ten 2′-deoxynucleosides and is flanked by wing segments on the 5′ direction and the 3′ direction comprising three nucleosides each. Each nucleoside in the 5′ wing segment and each nucleoside in the 3′ wing segment has a cEt sugar modification. The internucleoside linkages throughout each gapmer are phosphorothioate (P═S) linkages. All cytosine residues throughout each gapmer are 5-methylcytosines.
“Start site” indicates the 5′-most nucleoside to which the gapmer is targeted in the human gene sequence. “Stop site” indicates the 3′-most nucleoside to which the gapmer is targeted human gene sequence. […] Activity ofthe modified oligonucleotide may be defined in a different experiment.

[1] = Table 20, Yap1 mRNA, percent of untreated control, 3-10-3 cEt gapmers targeting SEQ ID NO.: 1 and 2
[2] = Table 25, Yap1 mRNA as percent of untreated control, 3-10-3 cEt gapmers targeting SEQ ID NO.: 1, and 2
[3] = Table 19, A-431 cells, 5,000 cells per well, free uptake, 2,000 nM modified oligonucleotide, approx. 48 hours, RTS4814, normalized to RIBOGREEN, Yap1 mRNA as percent of untreated control
[4] = A-431 cells, 5,000 cells per well, free uptake, 2,000 nM modified oligonucleotide, approx. 48 hours, RTS4814, normalized to RIBOGREEN, Table 4, asterisk (*) = targets amplicon region of primer probe set
[5] = Yap1 mRNA as percent of untreated control, A-431 cells, 3-10-3 cEt gapmers targeting SEQ ID NO.: 1, and 2, Table 31
[6] = Yap1 mRNA as percent of untreated control, A-431 cells, 3-10-3 cEt gapmers targeting SEQ ID NO.: 1, and 2, Table 30
[7] = Table 22, Yap1 mRNA as percent of untreated control, 3-10-3 cEt gapmers, single dose
[8] = Table 32, Yap1 mRNA, percent of untreated control, 3-10-3 cEt gapmers targeting SEQ ID NO.: 1, and 2
[9] = Table 5, A-431 cells, 5,000 cells per well, free uptake, 2,000 nM modified oligonucleotide, approx. 48 hours, RTS4814, normalized to RIBOGREEN, Yap1 mRNA relative to untreated control cells
[10] = Table 21, Yap1 mRNA, percent of untreated control, 3-10-3 cEt gapmers targeting SEQ ID NO.: 1 and 2
[11] = Table 33, Yap1 mRNA, percent of untreated control, 3-10-3 cEt gapmers targeting SEQ ID NO.: 1, and 2

## 1076294 (kT*kA*kT*dA*dT*dT*dA*dG*dT*dG*d[5mC]*d[5mC]*d[5mC]*k[5mC]*k[5mC]*kT; antisense) [Compound 1076294]
[1]
  YAP1 (% UTC): 6 % UTC

## 1075499 (kG*k[5mC]*kT*dA*dA*dA*dA*dA*dA*dT*dG*dA*dG*kT*kA*kG; antisense) [Compound 1075499]
[2]
  YAP1 (% UTC): 99 % UTC

## 1075557 (kT*kA*kT*dT*dA*dA*dG*dG*dT*dG*dG*d[5mC]*dT*kT*kA*k[5mC]; antisense) [Compound 1075557]
[3]
  YAP1 (% UTC): 57 % UTC

## 716574 (kT*kA*k[5mC]*dA*d[5mC]*dT*dG*dT*dA*dT*dA*dT*dG*kT*kT*k[5mC]; antisense) [Compound 716574]
[4]
  YAP1 (% UTC): 91 % UTC

## 1075409 (antisense k[5mC]*kT*kT*dT*dA*dA*dA*dT*dA*dG*d[5mC]*dA*dG*kA*kG*kG) [compound 1075409]
[5]
  YAP1 (% UTC): 22 % UTC

## 1075280 (antisense kG*kA*kA*d[5mC]*dT*dA*dT*dA*d[5mC]*dT*dA*dA*d[5mC]*kA*kT*kT) [compound 1075280]
[6]
  YAP1 (% UTC): 57 % UTC

## 1075467 (antisense k[5mC]*kA*kT*dT*dA*dA*dT*dG*d[5mC]*d[5mC]*dA*dT*d[5mC]*k[5mC]*kA*kA) [Compound 1075467]
[2]
  YAP1 (% UTC): 60 % UTC

## 1074993 (antisense kT*k[5mC]*kT*dA*dA*dT*d[5mC]*dA*dA*d[5mC]*dA*d[5mC]*dT*kG*kG*kA) [compound 1074993]
[5]
  YAP1 (% UTC): 65 % UTC

## 1074568 (antisense kG*kA*kA*d[5mC]*d[5mC]*dT*dA*d[5mC]*dT*d[5mC]*dA*d[5mC]*dT*kG*kA*kA) [Compound 1074568]
[7]
  YAP1 (% UTC): 12 % UTC

## 1074322 (antisense kA*kG*kG*dG*d[5mC]*dT*dA*dA*d[5mC]*dT*d[5mC]*d[5mC]*dT*kG*kA*k[5mC]) [compound 1074322]
[8]
  YAP1 (% UTC): 94 % UTC

## 1075142 (antisense kG*kA*kT*dA*dT*dA*d[5mC]*dG*dA*dG*dA*dA*dG*kT*kT*kG) [Compound 1075142]
[1]
  YAP1 (% UTC): 16 % UTC

## 1075698 (kG*kT*kT*dT*dA*dA*dT*dA*dA*dT*d[5mC]*d[5mC]*dA*kT*kG*k[5mC]; antisense) [compound 1075698]
[8]
  YAP1 (% UTC): 10 % UTC

## 1074408 (antisense kG*kA*kT*dT*dA*dA*dA*dG*dT*dA*dT*d[5mC]*dT*kT*kG*k[5mC]) [Compound 1074408]
[7]
  YAP1 (% UTC): 23 % UTC

## 1074406 (antisense kA*kA*kA*dG*dT*dA*dT*d[5mC]*dT*dT*dG*d[5mC]*dT*kG*kG*kA) [Compound 1074406]
[1]
  YAP1 (% UTC): 16 % UTC

## 1076452 (kG*kG*kA*d[5mC]*dT*dA*dT*dA*dG*d[5mC]*d[5mC]*d[5mC]*dT*kT*kA*kA; antisense) [Compound 1076452]
Table 18, A-431 cells, 5,000 cells per well, free uptake, 2,000 nM modified oligonucleotide, approx. 48 hours, RTS4814, normalized to RIBOGREEN, Yap1 mRNA as percent of untreated control
  YAP1 (% UTC): 16 % UTC

## 716566 (kG*kG*kT*dA*dA*d[5mC]*dT*d[5mC]*dT*dT*d[5mC]*dT*dT*kT*k[5mC]*k[5mC]; antisense) [Compound 716566]
[9]
  YAP1 (% UTC): 102 % UTC

## 1074193 (antisense kG*kG*kT*d[5mC]*d[5mC]*dG*dG*dA*d[5mC]*dG*dG*d[5mC]*dG*kG*kG*k[5mC]) [compound 1074193]
[5]
  YAP1 (% UTC): 74 % UTC

## 1074151 (antisense kG*kG*kG*d[5mC]*d[5mC]*dG*dA*dG*dG*dT*dG*dG*dA*kG*kA*kA) [Compound 1074151]
[10]
  YAP1 (% UTC): 81 % UTC

## 1076072 (k[5mC]*kA*k[5mC]*dA*dA*dA*dA*dA*d[5mC]*dT*dG*dG*dT*k[5mC]*kT*kG; antisense) [Compound 1076072]
[7]
  YAP1 (% UTC): 18 % UTC

## 1075077 (antisense kT*kA*kT*dA*d[5mC]*dG*dG*dT*d[5mC]*d[5mC]*dA*dT*dA*kA*k[5mC]*kA) [Compound 1075077]
[3]
  YAP1 (% UTC): 35 % UTC

## 1074859 (antisense kG*kT*kA*dA*d[5mC]*dA*dT*dT*dG*dG*dT*dA*d[5mC]*kT*kA*kT) [Compound 1074859]
[2]
  YAP1 (% UTC): 16 % UTC

## 1074982 (antisense kA*k[5mC]*k[5mC]*dT*dT*dT*dT*dA*dT*dT*dG*d[5mC]*d[5mC]*kA*kG*kT) [Compound 1074982]
[1]
  YAP1 (% UTC): 13 % UTC

## 716364 (k[5mC]*kG*k[5mC]*d[5mC]*dG*d[5mC]*dG*dG*dG*dT*dG*d[5mC]*d[5mC]*kG*kG*kT; antisense) [Compound 716364]
[4]
  YAP1 (% UTC): 110 % UTC

## 1076229 (kA*kA*kT*dT*dA*dA*d[5mC]*d[5mC]*dT*d[5mC]*dA*dG*dT*kG*kA*kG; antisense) [Compound 1076229]
[3]
  YAP1 (% UTC): 91 % UTC

## 1075593 (k[5mC]*kA*kT*dT*dA*dG*dA*dG*dT*dA*dT*dG*dA*kA*k[5mC]*kT; antisense) [Compound 1075593]
Table 23, Yap1 mRNA as percent of untreated control, 3-10-3 cEt gapmers, single dose
  YAP1 (% UTC): 99 % UTC

## 716365 (kT*k[5mC]*kT*dG*dA*dT*dG*d[5mC]*d[5mC]*d[5mC]*dG*dG*d[5mC]*kG*kG*kG; antisense) [Compound 716365]
[9]
  YAP1 (% UTC): 83 % UTC

## 1074120 (antisense kG*k[5mC]*kG*dA*dG*dG*d[5mC]*dA*d[5mC]*dT*d[5mC]*dG*dG*kA*k[5mC]*k[5mC]) [Compound 1074120]
[7]
  YAP1 (% UTC): 50 % UTC

## 1074791 (k[5mC]*kT*k[5mC]*d[5mC]*dA*dT*d[5mC]*dA*dA*d[5mC]*d[5mC]*dA*dT*kA*kA*kG; antisense) [Compound 1074791]
[10]
  YAP1 (% UTC): 20 % UTC

## 1075079 (antisense k[5mC]*kA*k[5mC]*d[5mC]*dA*dA*dA*dA*dG*d[5mC]*dT*dT*dA*kG*kT*kT) [Compound 1075079]
[10]
  YAP1 (% UTC): 40 % UTC

## 1076200 (kG*kA*kT*dT*dA*d[5mC]*dA*d[5mC]*dT*dA*dT*d[5mC]*dA*kA*kA*kA; antisense) [Compound 1076200]
[7]
  YAP1 (% UTC): 67 % UTC

## 1075027 (antisense kA*kA*kA*dT*dT*dT*dG*dA*dA*d[5mC]*dT*dG*d[5mC]*k[5mC]*k[5mC]*kA) [compound 1075027]
[11]
  YAP1 (% UTC): 28 % UTC

## 716494 (kA*kA*kG*dG*dG*d[5mC]*dT*dT*dA*dT*dT*d[5mC]*dT*kA*kG*kA; antisense) [Compound 716494]
[9]
  YAP1 (% UTC): 112 % UTC

## 1076107 (k[5mC]*kA*kT*dT*dA*d[5mC]*d[5mC]*dA*dA*d[5mC]*dT*dT*d[5mC]*kT*kT*k[5mC]; antisense) [Compound 1076107]
[2]
  YAP1 (% UTC): 23 % UTC

## 1075531 (k[5mC]*kT*kT*dA*dA*dT*dA*dG*dT*dT*dT*dA*dA*k[5mC]*k[5mC]*kT; antisense) [Compound 1075531]
[2]
  YAP1 (% UTC): 66 % UTC

## 1075370 (k[5mC]*kT*kT*dA*d[5mC]*dG*dA*dA*dT*d[5mC]*dA*d[5mC]*dA*kT*kA*kT; antisense) [Compound 1075370]
Table 24, Yap1 mRNA as percent of untreated control, 3-10-3 cEt gapmers targeting SEQ ID NO.: 1, and 2
  YAP1 (% UTC): 32 % UTC

## 1076048 (kG*kA*kT*dT*dA*dA*dA*dG*dG*d[5mC]*dT*dG*dG*kA*kA*kG; antisense) [compound 1076048]
[6]
  YAP1 (% UTC): 32 % UTC

## 1076400 (antisense kG*kT*kT*dA*dA*dA*dA*dG*d[5mC]*d[5mC]*dG*dT*dG*kA*kA*kA) [compound 1076400]
[6]
  YAP1 (% UTC): 10 % UTC

## 1074257 (antisense kG*k[5mC]*kA*d[5mC]*dT*dG*dG*dT*dG*dG*dA*d[5mC]*dT*kG*kG*kT) [compound 1074257]
[5]
  YAP1 (% UTC): 29 % UTC

## 1074899 (antisense kT*kA*kA*d[5mC]*dT*dT*dT*dT*dG*dG*dG*d[5mC]*dA*kA*kA*kG) [compound 1074899]
[11]
  YAP1 (% UTC): 52 % UTC

## 716562 (kG*k[5mC]*k[5mC]*dT*dG*d[5mC]*d[5mC]*dG*dA*dA*dG*d[5mC]*dA*kG*kT*kT) [Compound 716562]
Table 7 (gapmers targeting SEQ ID NO: 3 and 4), A-431 cells, free uptake, 2,000 nM, approximately 48 hours, RTS4814
  YAP1 (% UTC): 103 % UTC
